Reference: ChEMBL document CHEMBL5034015, “Structure-Based Optimization of 3-Phenyl-N-(2-(3-phenylureido)ethyl)thiophene-2-sulfonamide Derivatives as Selective Mcl-1 Inhibitors” (J Med Chem, 2021)
Active and inactive are the calls of the source. Unless noted, the rule behind the calls is not given here.

Columns and labels:
Bcl-2-like protein 1 [1] = target: T1, Bcl-2-like protein 1 (Homo sapiens, UniProt Q07817); assay: Binding affinity to full length human Bcl-xl expressed in Escherichia coli BL21 (DE3) at up to 100 uM preincubated for 30 mins followed by 5-FAM-QEDIIIINIARHLAQVGDSMD-RSIPPG tracer addition and measured after 20 mins by fluorescence polarization assay; settings: dose microM <=100, time 50.0 min
[2] = target: T2, Apoptosis regulator Bcl-2 (Homo sapiens, UniProt P10415); assay: Binding affinity to full length human Bcl-2 expressed in Escherichia coli BL21 (DE3) at up to 100 uM preincubated for 30 mins followed by 5-FAM-QEDIIIINIARHLAQVGDSMD-RSIPPG tracer addition and measured after 20 mins by fluorescence polarization assay; settings: dose microM <=100, time 50.0 min
[3] = Cytotoxicity against HEK293T cells assessed as cell viability at 20 uM incubated for 48 hrs by CCK8 assay relative to control; format: cell-based, HEK-293T; settings: human, read-out: Activity
RS4-11 = assay: cells; settings: Homo sapiens, RS4-11, 48 h
Description: Cytotoxicity against human RS4-11 cells assessed as inhibition of cell growth incubated for 48 hrs by CCK8 assay

[4] = target: T3, Induced myeloid leukemia cell differentiation protein Mcl-1 (Homo sapiens, UniProt Q07820); assay: Binding affinity to full length human MCL1 expressed in Escherichia coli BL21 (DE3) at up to 100 uM preincubated for 30 mins followed by 5-FAM-QEDIIIINIARHLAQVGDSMD-RSIPPG tracer addition and measured after 20 mins by fluorescence polarization assay; settings: dose microM <=100, time 50.0 min
HL-60 = assay: cells; settings: Homo sapiens, HL-60, 48 h
Description: Cytotoxicity against human HL-60 cells assessed as inhibition of cell growth incubated for 48 hrs by CCK8 assay

HeLa [5] = assay: cells; settings: Homo sapiens, 48 h
Description: Cytotoxicity against human HeLa cells assessed as inhibition of cell growth incubated for 48 hrs by CCK8 assay

[6] = target: T3, Induced myeloid leukemia cell differentiation protein Mcl-1; assay: Binding affinity to 15N-labeled human MCL1 (172 to 327 residues) expressed in Escherichia coli BL21 (DE3) assessed as chemical shift at M231 residue at 0.3 mM incubated for 1 hr by 15N HSQC NMR spectroscopy analysis
[7] = target: T3, Induced myeloid leukemia cell differentiation protein Mcl-1; assay: Binding affinity to 15N-labeled human MCL1 (172 to 327 residues) expressed in Escherichia coli BL21 (DE3) assessed as chemical shift at F228 residue at 0.3 mM incubated for 1 hr by 15N HSQC NMR spectroscopy analysis
[8] = target: T3, Induced myeloid leukemia cell differentiation protein Mcl-1; assay: Binding affinity to 15N-labeled human MCL1 (172 to 327 residues) expressed in Escherichia coli BL21 (DE3) assessed as chemical shift at L235 residue at 0.3 mM incubated for 1 hr by 15N HSQC NMR spectroscopy analysis
[9] = target: T2, Apoptosis regulator Bcl-2; assay: Binding affinity to full length human Bcl-2 expressed in Escherichia coli BL21 (DE3) at 100 uM preincubated for 30 mins followed by 5-FAM-QEDIIIINIARHLAQVGDSMD-RSIPPG tracer addition and measured after 20 mins by fluorescence polarization assay relative to control; settings: time 50.0 min
[10] = target: T3, Induced myeloid leukemia cell differentiation protein Mcl-1; assay: Binding affinity to 15N-labeled human MCL1 (172 to 327 residues) expressed in Escherichia coli BL21 (DE3) assessed as chemical shift at R263 residue at 0.3 mM incubated for 1 hr by 15N HSQC NMR spectroscopy analysis
HEK-293T = assay: Cytotoxicity against HEK293T cells assessed as reduction in cell viability incubated for 48 hrs by CCK8 assay; settings: Homo sapiens
[11] = target: T3, Induced myeloid leukemia cell differentiation protein Mcl-1; assay: Binding affinity to full length human MCL1 expressed in Escherichia coli BL21 (DE3) at 100 uM preincubated for 30 mins followed by 5-FAM-QEDIIIINIARHLAQVGDSMD-RSIPPG tracer addition and measured after 20 mins by fluorescence polarization assay relative to control; settings: time 50.0 min
Bcl-2-like protein 1 [12] = target: T1, Bcl-2-like protein 1; assay: Binding affinity to full length human Bcl-xl expressed in Escherichia coli BL21 (DE3) at 100 uM preincubated for 30 mins followed by 5-FAM-QEDIIIINIARHLAQVGDSMD-RSIPPG tracer addition and measured after 20 mins by fluorescence polarization assay relative to control; settings: time 50.0 min
[13] = target: T3, Induced myeloid leukemia cell differentiation protein Mcl-1; assay: Binding affinity to 15N-labeled human MCL1 (172 to 327 residues) expressed in Escherichia coli BL21 (DE3) assessed as chemical shift at M250 residue at 0.3 mM incubated for 1 hr by 15N HSQC NMR spectroscopy analysis
[14] = target: T3, Induced myeloid leukemia cell differentiation protein Mcl-1; assay: Binding affinity to 15N-labeled human MCL1 (172 to 327 residues) expressed in Escherichia coli BL21 (DE3) assessed as chemical shift at H224 residue at 0.3 mM incubated for 1 hr by 15N HSQC NMR spectroscopy analysis
[15] = target: T3, Induced myeloid leukemia cell differentiation protein Mcl-1; assay: Binding affinity to full length human MCL1 expressed in Escherichia coli BL21 (DE3) assessed as inhibition constant preincubated for 30 mins followed by 5-FAM-QEDIIIINIARHLAQVGDSMD-RSIPPG tracer addition and measured after 20 mins by fluorescence polarization assay
[16] = target: T2, Apoptosis regulator Bcl-2; assay: Binding affinity to full length human Bcl-2 expressed in Escherichia coli BL21 (DE3) assessed as inhibition constant preincubated for 30 mins followed by 5-FAM-QEDIIIINIARHLAQVGDSMD-RSIPPG tracer addition and measured after 20 mins by fluorescence polarization assay
Bcl-2-like protein 1 [17] = target: T1, Bcl-2-like protein 1; assay: Binding affinity to full length human Bcl-xl expressed in Escherichia coli BL21 (DE3) assessed as inhibition constant preincubated for 30 mins followed by 5-FAM-QEDIIIINIARHLAQVGDSMD-RSIPPG tracer addition and measured after 20 mins by fluorescence polarization assay
HeLa [18] = assay: Cytotoxicity against human HeLa cells assessed as cell viability at 20 uM incubated for 48 hrs by CCK8 assay relative to control; format: functional; settings: read-out: Activity

T3 sequence (Q07820 whole entry): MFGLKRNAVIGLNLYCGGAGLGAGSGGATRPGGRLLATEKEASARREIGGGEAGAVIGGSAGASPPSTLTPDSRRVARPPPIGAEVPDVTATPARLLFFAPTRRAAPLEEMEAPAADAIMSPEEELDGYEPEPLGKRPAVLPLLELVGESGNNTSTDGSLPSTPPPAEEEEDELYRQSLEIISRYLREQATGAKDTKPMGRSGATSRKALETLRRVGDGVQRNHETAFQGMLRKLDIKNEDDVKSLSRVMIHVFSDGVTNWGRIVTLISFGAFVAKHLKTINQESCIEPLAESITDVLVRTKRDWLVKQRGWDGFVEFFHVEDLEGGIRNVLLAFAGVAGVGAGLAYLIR
T2 sequence (P10415 whole entry): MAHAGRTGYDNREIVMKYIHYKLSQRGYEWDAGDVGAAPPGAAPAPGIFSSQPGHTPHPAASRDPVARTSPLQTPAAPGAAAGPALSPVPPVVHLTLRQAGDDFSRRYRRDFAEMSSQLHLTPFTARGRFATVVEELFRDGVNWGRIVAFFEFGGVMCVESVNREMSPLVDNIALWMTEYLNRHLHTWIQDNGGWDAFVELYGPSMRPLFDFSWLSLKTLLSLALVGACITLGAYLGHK
T1 sequence (Q07817 whole entry): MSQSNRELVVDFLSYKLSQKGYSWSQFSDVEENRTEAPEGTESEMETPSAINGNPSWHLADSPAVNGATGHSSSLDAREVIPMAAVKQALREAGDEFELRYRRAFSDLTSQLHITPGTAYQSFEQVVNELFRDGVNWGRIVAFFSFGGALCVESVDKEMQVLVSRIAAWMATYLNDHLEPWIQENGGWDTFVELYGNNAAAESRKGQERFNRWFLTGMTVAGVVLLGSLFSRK

| Compound | Activity (Bcl-2-like protein 1 [1]) | Activity [2] | IC50 (RS4-11) [µM] | IC50 (HL-60) [µM] | IC50 (HeLa [5]) [µM] | Ki [15] [µM] | Ki [16] [µM] | Ki (Bcl-2-like protein 1 [17]) [µM] | IC50 (HEK-293T) [µM] | also measured |
| --- | --- | --- | --- | --- | --- | --- | --- | --- | --- | --- |
| O=C(NCCNS(=O)(=O)c1ccc(-c2ccccc2O[C@H]2CC[C@H](O)CC2)s1)Nc1cc(C(F)(F)F)cc(C(F)(F)F)c1 | inactive | inactive | 10.1 | 7.1 | > 20 | – | – | – | – | viability at 48 h, 20 µM [3]: 50%; Activity [4]: inactive |
| O=C(NCCNS(=O)(=O)c1ccc(-c2ccccc2OCc2ccccc2)s1)Nc1cc(Cl)cc(Cl)c1 | inactive | inactive | > 20 | 11.7 | > 20 | – | – | – | – | viability at 48 h, 20 µM [3]: 41%; Activity [4]: inactive |
| O=C(NCCNS(=O)(=O)c1ccc(-c2ccccc2Oc2ccc(O)c(O)c2)s1)Nc1cc(Cl)cc(Cl)c1 | – | – | 4.5 | 10.4 | > 20 | 0.94 | 3.6 | 1.7 | 12.4 | – |
| Cc1nn(C)c(COc2ccc(N3CCN(S(=O)(=O)N(C)C)CC3)cc2)c1-c1cccc2c(CCCOc3cccc4ccccc34)c(C(=O)O)n(CCN3CCOCC3)c12 | inactive | inactive | 7.31 | 2.46 | > 20 | < 0.001 | – | – | > 20 | Activity [6]: Active; Activity [7]: Active; Activity [8]: Active; Activity [10]: Active; Activity [13]: Active; Activity [14]: Active |
| O=[N+]([O-])c1ccc(NC(=S)NCCNS(=O)(=O)c2ccc(-c3ccccc3OCc3cccc(O)c3)s2)cc1 | inactive | inactive | 10.1 | 10.8 | – | – | – | – | > 20 | viability at 20 µM (HeLa [18]): 28%; Activity [4]: inactive |

More lines, main results first:

| Activity (Bcl-2-like protein 1 [1]) | Activity [2] | IC50 (RS4-11) [µM] | IC50 (HL-60) [µM] | IC50 (HeLa [5]) [µM] | Ki [15] [µM] | Ki [16] [µM] | Ki (Bcl-2-like protein 1 [17]) [µM] | Compound | IC50 (HEK-293T) [µM] | also measured |
| --- | --- | --- | --- | --- | --- | --- | --- | --- | --- | --- |
| – | – | 9.5 | 8.4 | > 20 | – | – | – | O=[N+]([O-])c1ccc(Oc2ccc(O)c(O)c2)c(-c2ccsc2S(=O)(=O)N2CCN(C(=S)Nc3cc(C(F)(F)F)cc(C(F)(F)F)c3)CC2)c1 | > 20 | Activity [6]: Active; Activity [7]: Active; Activity [8]: Active; inhibition [9]: 12%; Activity [10]: Active; inhibition [11]: 52%; inhibition (Bcl-2-like protein 1 [12]): 14%; Activity [13]: Active; Activity [14]: Active |
| – | – | 4.9 | 10.5 | > 20 | 0.42 | 3.9 | 1.5 | O=C(NCCNS(=O)(=O)c1ccc(-c2ccccc2Oc2ccc(O)c(O)c2)s1)Nc1cc(C(F)(F)F)cc(C(F)(F)F)c1 | 17.1 | – |
| inactive | – | 7.7 | 3.9 | > 20 | 7.1 | 13 | – | Cc1ccc(-c2ccsc2S(=O)(=O)NCCNC(=O)Nc2ccc([N+](=O)[O-])cc2)c(Oc2ccc(O)c(O)c2)c1 | – | viability at 48 h, 20 µM [3]: 48% |
| – | – | 10.3 | 18.3 | > 20 | 0.37 | 2.6 | 0.93 | O=S(=O)(NCCNC(=S)Nc1cc(C(F)(F)F)cc(C(F)(F)F)c1)c1ccc(-c2ccccc2Oc2ccc(O)c(O)c2)s1 | 12.3 | – |
| – | – | > 50 | > 20 | > 50 | 0.77 | 8.4 | 1.7 | O=C(NCCNS(=O)(=O)c1cc(-c2ccccc2Oc2ccc(O)c(O)c2)cs1)Nc1cc(Cl)cc(Cl)c1 | > 20 | – |
| – | – | 3.7 | 8.2 | > 20 | 2.1 | 2.4 | 4.9 | CC(C)c1ccc(Oc2ccc(O)c(O)c2)c(-c2ccsc2S(=O)(=O)NCCNC(=S)Nc2cc(C(F)(F)F)cc(C(F)(F)F)c2)c1 | 18.1 | Activity [6]: Active; Activity [7]: Active; Activity [8]: Active; Activity [10]: Active; Activity [13]: Active; Activity [14]: Active |
